Test results taken from patent US11136296B2, “Substituted N-arylethyl-2-arylquinoline-4-carboxamides and use thereof” (Bayer Aktiengesellschaft, priority 2017, dated 2021).

Biological target: FP receptor (Homo sapiens (Human), UniProt P43088)
Assay: In vitro test of inhibition of human FP receptor activity (PGF2α-induced calcium flux in FP-expressing CHEM1 cells)
Assay type: cell-based
Conditions: PGF2α-induced (2 nM) calcium flux in FP-expressing CHEM1 cells; some as mean values from multiple determinations
From the text: Table 1 below lists the IC50 values from this assay for individual working examples of the invention (some as mean values from multiple independent individual determinations): […]

Sequence of FP receptor (P43088 whole entry): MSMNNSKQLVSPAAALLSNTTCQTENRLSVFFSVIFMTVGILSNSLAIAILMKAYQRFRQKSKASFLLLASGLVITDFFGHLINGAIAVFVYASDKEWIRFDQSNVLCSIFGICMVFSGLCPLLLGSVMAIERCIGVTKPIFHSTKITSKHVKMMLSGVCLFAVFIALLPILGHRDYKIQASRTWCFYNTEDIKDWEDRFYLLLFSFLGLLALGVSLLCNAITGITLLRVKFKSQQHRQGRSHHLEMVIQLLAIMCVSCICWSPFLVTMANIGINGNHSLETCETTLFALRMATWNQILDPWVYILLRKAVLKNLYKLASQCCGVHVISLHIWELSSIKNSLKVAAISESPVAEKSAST

In the case of `Cc1cccc(C(CNC(=O)c2c(C)c(-c3ccccc3)nc3ccc(Br)cc23)C(=O)O)c1` (single isomer, unassigned; (+)) [Example 52, (+)-3-{[(6-Bromo-3-methyl-2-phenylquinolin-4-yl)carbonyl]amino}-2-(3-methylphenyl)propanoic Acid], the IC50 is reported as 71 nM.

Work on `COc1ccccc1C(O)(CNC(=O)c1c(C)c(-c2ccccc2)nc2ccc(Br)cc12)C(=O)O` (single isomer, unassigned; (+)) [Example 55, (+)-3-{[(6-Bromo-3-methyl-2-phenylquinolin-4-yl)carbonyl]amino}-2-hydroxy-2-(2-methoxyphenyl)propanoic Acid] yielded an IC50 of 78 nM.

With `COc1cccc(F)c1C(CNC(=O)c1c(C)c(-c2ccccc2)nc2ccc(Br)cc12)C(=O)O` (single isomer, unassigned; (+)) [Example 58, (+)-3-{[(6-Bromo-3-methyl-2-phenylquinolin-4-yl)carbonyl]amino}-2-(2-fluoro-6-methoxyphenyl)propanoic Acid] the IC50 was 9.7 nM.

`COc1ccccc1C(C)(CNC(=O)c1c(C)c(-c2ccccc2)nc2ccc(Br)cc12)C(=O)O` (single isomer, unassigned; (+)) [Example 60, (+)-3-{[(6-Bromo-3-methyl-2-phenylquinolin-4-yl)carbonyl]amino}-2-(2-methoxyphenyl)-2-methylpropanoic Acid] gave an IC50 of 120 nM.

Compound `Cc1c(-c2ccccc2)nc2ccc(Br)cc2c1C(=O)NCC(C)(C(=O)O)c1c(F)cccc1Cl` (single isomer, unassigned; (+)) [Example 61, (+)-3-{[(6-Bromo-3-methyl-2-phenylquinolin-4-yl)carbonyl]amino}-2-(2-chloro-6-fluorophenyl)-2-methylpropanoic Acid] has an IC50 of 230 nM.

Work on `Cc1c(-c2ccccc2)nc2ccc(Br)cc2c1C(=O)NCC(CC(=O)O)c1ccccc1` (single isomer, unassigned; (+)) [Example 65, (+)-4-{[(6-Bromo-3-methyl-2-phenylquinolin-4-yl)carbonyl]amino}-3-phenylbutanoic Acid] yielded an IC50 of 220 nM.

In the case of `Cc1c(-c2ccccc2)nc2ccc(Br)cc2c1C(=O)NCC(CC(=O)O)c1ccc(Cl)cc1` (single isomer, unassigned; (+)) [Example 67, (+)-4-{[(6-Bromo-3-methyl-2-phenylquinolin-4-yl)carbonyl]amino}-3-(4-chlorophenyl)butanoic Acid], the IC50 is reported as 370 nM.

In the case of `Cc1ccccc1C(CNC(=O)c1c(C)c(-c2ccccc2)nc2ccc(Br)cc12)CC(=O)O` (single isomer, unassigned; (+)) [Example 77, (+)-4-{[(6-Bromo-3-methyl-2-phenylquinolin-4-yl)carbonyl]amino}-3-(2-methylphenyl)butanoic Acid], the IC50 is reported as 85 nM.

`Cc1c(-c2ccccc2)nc2ccc(Br)cc2c1C(=O)NCC(C)(CC(=O)O)c1ncccc1Cl` (single isomer, unassigned; (+)) [Example 86, (+)-4-{[(6-Bromo-3-methyl-2-phenylquinolin-4-yl)carbonyl]amino}-3-(3-chloropyridin-2-yl)-3-methylbutanoic Acid] was tested, and the IC50 was 240 nM.

For `Cc1c(-c2ccccc2)nc2ccc(Br)cc2c1C(=O)NCC(CC(=O)O)c1c(F)cccc1Cl` (single isomer, unassigned; (+)) [Example 89, (+)-4-{[(6-Bromo-3-methyl-2-phenylquinolin-4-yl)carbonyl]amino}-3-(2-chloro-6-fluorophenyl)butanoic Acid], the IC50 was 27 nM.

`Cc1ccc(C(CNC(=O)c2c(C)c(-c3ccccc3)nc3ccc(Br)cc23)CC(=O)O)cc1` (single isomer, unassigned; (+)) [Example 91, (+)-4-{[(6-Bromo-3-methyl-2-phenylquinolin-4-yl)carbonyl]amino}-3-(4-methylphenyl)butanoic Acid] gave an IC50 of 460 nM.

`Cc1c(-c2ccccc2)nc2ccc(Br)cc2c1C(=O)NCC(CC(=O)O)c1ccccc1OC(F)(F)F` (single isomer, unassigned; (+)) [Example 101, (+)-4-{[(6-Bromo-3-methyl-2-phenylquinolin-4-yl)carbonyl]amino}-3-[2-(trifluoromethoxy)phenyl]butanoic Acid] showed an IC50 of 32 nM.

`Cc1c(-c2ccccc2)nc2ccc(Br)cc2c1C(=O)NCC(CC(=O)O)c1ccccn1` (single isomer, unassigned; (+)) [Example 104, (+)-4-{[(6-Bromo-3-methyl-2-phenylquinolin-4-yl)carbonyl]amino}-3-(pyridin-2-yl)butanoic Acid] showed an IC50 greater than 1000 nM.

Work on `Cc1c(-c2ccccc2)nc2ccc(Br)cc2c1C(=O)NCC(CC(=O)O)c1ccccc1C(F)(F)F` (single isomer, unassigned; (+)) [Example 106, (+)-4-{[(6-Bromo-3-methyl-2-phenylquinolin-4-yl)carbonyl]amino}-3-[2-(trifluoromethyl)phenyl]butanoic Acid] yielded an IC50 of 280 nM.

`COc1cccnc1C(CNC(=O)c1c(C)c(-c2ccccc2)nc2ccc(Br)cc12)CC(=O)O` (single isomer, unassigned; (+)) [Example 110, (+)-4-{[(6-Bromo-3-methyl-2-phenylquinolin-4-yl)carbonyl]amino}-3-(3-methoxypyridin-2-yl)butanoic Acid] was tested, and the IC50 was 75 nM.

With `Cc1c(-c2ccccc2)nc2ccc(Br)cc2c1C(=O)NCC(C)(CC(=O)O)c1ccccc1F` (single isomer, unassigned; (+)) [Example 115, (+)-4-{[(6-Bromo-3-methyl-2-phenylquinolin-4-yl)carbonyl]amino}-3-(2-fluorophenyl)-3-methylbutanoic Acid] the IC50 was 31 nM.

For `Cc1c(-c2ccccc2)nc2ccc(Br)cc2c1C(=O)NCC(C)(CC(=O)O)c1ccccn1` (single isomer, unassigned; (+)) [Example 118, (+)-4-{[(6-Bromo-3-methyl-2-phenylquinolin-4-yl)carbonyl]amino}-3-methyl-3-(pyridin-2-yl)butanoic Acid], the IC50 was 280 nM.

Work on `COc1ccccc1C(C)(CNC(=O)c1c(C)c(-c2ccccc2)nc2ccc(Br)cc12)CC(=O)O` (single isomer, unassigned; (+)) [Example 121, (+)-4-{[(6-Bromo-3-methyl-2-phenylquinolin-4-yl)carbonyl]amino}-3-(2-methoxyphenyl)-3-methylbutanoic Acid] yielded an IC50 of 10 nM.

Compound `COc1ccc(F)cc1C(CNC(=O)c1c(C)c(-c2ccccc2)nc2ccc(Br)cc12)CC(=O)O` (single isomer, unassigned; (+)) [Example 124, (+)-4-{[(6-Bromo-3-methyl-2-phenylquinolin-4-yl)carbonyl]amino}-3-(5-fluoro-2-methoxyphenyl)butanoic Acid] has an IC50 of 5.3 nM.

For `COc1cccc(F)c1C(CNC(=O)c1c(C)c(-c2ccccc2)nc2ccc(Br)cc12)CC(=O)O` (single isomer, unassigned; (+)) [Example 127, (+)-4-{[(6-Bromo-3-methyl-2-phenylquinolin-4-yl)carbonyl]amino}-3-(2-fluoro-6-methoxyphenyl)butanoic Acid], the IC50 was 25 nM.

`CCOc1ccccc1C(CNC(=O)c1c(C)c(-c2ccccc2)nc2ccc(Br)cc12)CC(=O)O` (single isomer, unassigned; (+)) [Example 131, (+)-4-{[(6-Bromo-3-methyl-2-phenylquinolin-4-yl)carbonyl]amino}-3-(2-ethoxyphenyl)butanoic Acid] gave an IC50 of 99 nM.
